In patent US9765308B2, “Aromatic prenyltransferase from cannabis” (priority 2009, dated 2017):

Key:
CsPT1 [1] = molecular target: T1, CsPT1 (Cannabis sativa, UniProt A0A455ZIK6); assay: Prenyltransferase assay of recombinant CsPT1 with different aromatic acceptor substrates, geranyl diphosphate as prenyl donor; assay type: biochemical; conditions: for Product yield (%): yield of prenylated products by HPLC peak area, yield of cannabigerolic acid and 5-geranyl olivetolic acid set to 100%
Description: (§1) The prenyltransferase assay for CsPT1 comprised 100 mM Tris-HCl (pH 7.5), 0.2 mM olivetolic acid, 1 mM geranyl diphosphate and 5 mM MgCl2 in a final volume 100 μl. The reaction was initiated by addition of a 5 μl aliquot of microsomal preparation (64 μg protein), either from insect cells or yeast. After incubation for 1 h at 37° C., the reaction was terminated by addition of 10 μl 6 N HCl and extracted twice with 200 μl of ethyl acetate. The organic phase was evaporated to dryness and the residue dissolved in 50 μl of methanol. A 20 μl aliquot was analyzed by HPLC using a Waters 2695 system equipped with photodiode array detector on a Sunfire C18 reversed phase column 3.5 μm (4.6×150 mm) at a column temperature of 30° C. The mobile phase at 1 ml/min consisted of 50% water (containing 0.1% trifluoroacetic acid [TFA] [v/v]) and 50% acetonitrile over 10 min, 50% to 100% acetonitrile over 10 min, 100% acetonitrile to 50% acetonitrile over 1 min, 50% acetonitrile and 50% water over 4 min. The products were detected at 270 nm with photodiode array detection.
The activity of the recombinant CsPT1 was assayed to determine its use of different aromatic acceptor substrates using geranyl diphosphate as the prenyl donor substrate. […] In Table 3, Product yield is the yield of prenylated products as measured by HPLC peak area with the yield of cannabigerolic acid and 5-geranyl olivetolic acid set to 100%. Phlorisovalerophenone has not been detected in cannabis. It has been shown that cannabinoids with short side-chains exist in cannabis (e.g. tetrahydrocannabivarinic acid having a propyl side-chain instead of the pentyl side-chain of THC acid (Shoyama 1984). Given that CsPT1 accepts a variety of aromatic acceptor substrates, this enzyme likely is able to prenylate analogs of olivetolic acid that have differing side-chain length.

CsPT1 [2] = molecular target: T1, CsPT1; assay: Prenyltransferase assay of recombinant CsPT1 with different prenyl diphosphate donor substrates; assay type: biochemical; conditions: FIG. 6; n=3
Description: FIG. 6 depicts use of different prenyl diphosphate donor substrates by recombinant CsPT1, where DMAPP is dimethylally diphosphate, IPP is isopenetnyl diphosphate, GPP is geranyl diphosphate, NPP is neryl diphosphate, FPP is farnesyl diphosphate, and GGPP is geranylgeranyl diphosphate. Bar represents mean+/− standard deviation (n=3).
as §1, with “detection. […]” for “detection.”

| Compound | Product yield (%) (CsPT1 [1]) | Geranylation of aromatic acceptor substrate by CsPT1 (CsPT1 [1]) | Use as prenyl donor substrate (CsPT1 [2]) |
| --- | --- | --- | --- |
| O=C(/C=C/c1ccc(O)cc1)c1c(O)cc(O)cc1O [Chalconaringenin] | 0% | – | – |
| COc1cc(-c2cc(=O)c3c(O)cc(O)cc3o2)ccc1O [Chrysoeriol] | 0% | – | – |
| CCCCCC(=O)Cc1cc(O)cc(=O)o1 [Hexanoyl triacetic acid lactone] | 0% | – | – |
| O=C(O)Cc1cc(O)ccc1O [Homogentisic acid] | 0% | – | – |
| O=c1cc(-c2ccc(O)c(O)c2)oc2cc(O)cc(O)c12 [Luteolin] | 0% | – | – |
| O=C1C[C@@H](c2ccc(O)cc2)Oc2cc(O)cc(O)c21 [Naringenin] | 31% | geranylated | – |
| CCCCCc1cc(O)cc(O)c1 [Olivetol] | 30% | geranylated | – |
| CCCCCc1cc(O)cc(O)c1C(=O)O [Olivetolic acid] | 100% | geranylated | – |
| CC(C)CC(=O)c1c(O)cc(O)cc1O [Phlorisovalerophenone] | 250% | geranylated | – |
| Oc1cc(O)cc(O)c1 [Phloroglucinol] | 0% | – | – |
| Oc1ccc(C=Cc2cc(O)cc(O)c2)cc1 [Resveratrol] | 32% | geranylated | – |
| CC(C)=CCC/C(C)=C/COP(=O)(O)OP(=O)(O)O [geranyl diphosphate] | – | – | only used geranyl diphosphate (GPP) as a prenyl donor |
